Reference: patent US20170333591A9, “ABSORBENT ARTICLE COMPRISING MALODOR REDUCTION COMPOSITIONS” (The Procter & Gamble Company, priority 2014, published 2017)

Assay: Log of liquid dish neat product liquid-air partition coefficient
Assay type: physicochemical
Details: not given

| Structure (SMILES) | Comment Code: Log of liquid dish neat product liquid-air partition coefficient |
| --- | --- |
| CC1CCC2C(C)(C)C3CC12CCC3(C)OC=O (stereo not shown) [Material 566] | K (Log of liquid dish neat product liquid-air partition coefficient greater than or equal to 7) |
| CC(O)CCC1CCCCC1 (stereo not shown) [Material 699] | K (Log of liquid dish neat product liquid-air partition coefficient greater than or equal to 7) |
| CC1C2CC(CC2C2CCC(O)CC2)C1(C)C (stereo not shown) [Material 230] | K (Log of liquid dish neat product liquid-air partition coefficient greater than or equal to 7) |
| CC(C)C(=O)OCc1ccccc1 [Material 647] | K (Log of liquid dish neat product liquid-air partition coefficient greater than or equal to 7) |
| CC=CC(=O)C1C(C)=CCCC1(C)C (stereo not shown) [Material 1074] | K (Log of liquid dish neat product liquid-air partition coefficient greater than or equal to 7) |
| CC(C)=C1CCC2=CC(=O)CC(C)C2(C)C1 (stereo not shown) [Material 684] | K (Log of liquid dish neat product liquid-air partition coefficient greater than or equal to 7) |
| CC(C)(O)CCC1CCCCC1 [Material 496] | K (Log of liquid dish neat product liquid-air partition coefficient greater than or equal to 7) |
| CC/C(=C/CC1CC=C(C)C1(C)C)CO (stereo not shown) [Material 1024] | K (Log of liquid dish neat product liquid-air partition coefficient greater than or equal to 7) |

Same assay, conditions: Comment Code letters K and/or L

| Structure (SMILES) | Log of liquid dish neat product liquid-air partition coefficient (Comment Code K/L) |
| --- | --- |
| CC1CC(C)(c2ccccc2)OC(C)O1 (stereo not shown) [Material 1126] | K (Log of liquid dish neat product liquid-air partition coefficient greater than or equal to 7) |
| COCc1ccc(O)c(OC)c1 [Material 1113] | K (Log of liquid dish neat product liquid-air partition coefficient greater than or equal to 7) |

Same assay, conditions: code letter within the Comment Code cell

| Structure (SMILES) | Log of liquid dish neat product liquid-air partition coefficient (Comment Code K/L) |
| --- | --- |
| CC1C2CC(CC2C2CCC(O)CC2)C1(C)C (stereo not shown) [Material 230] | K (Log of liquid dish neat product liquid-air partition coefficient greater than or equal to 7) |
| CC(C)=CCCC(C)=CCCc1ccncc1 [Material 135] | K (Log of liquid dish neat product liquid-air partition coefficient greater than or equal to 7) |
| CCCCCCCCCCCCCC(=O)OCC [Material 388] | K (Log of liquid dish neat product liquid-air partition coefficient greater than or equal to 7) |
| O=CCCC=C1CC2CC1C1CCCC21 (stereo not shown) [Material 418] | K (Log of liquid dish neat product liquid-air partition coefficient greater than or equal to 7) |
| CC1=CCC(C)C(C)C12C=CC(C)O2 (stereo not shown) [Material 192] | K (Log of liquid dish neat product liquid-air partition coefficient greater than or equal to 7) |
| CCC1=CCCC(C)(C)C12C=CC(C)O2 (stereo not shown) [Material 413] | K (Log of liquid dish neat product liquid-air partition coefficient greater than or equal to 7) |
| C=CC(C)(O)CCC=C(C)CCC=C(C)C (stereo not shown) [Material 63] | K (Log of liquid dish neat product liquid-air partition coefficient greater than or equal to 7) |
| C=C(OCC)C1C(C)(C)CC(=O)CC1(C)C [Material 182] | K (Log of liquid dish neat product liquid-air partition coefficient greater than or equal to 7) |
| CCNC(=O)C1CC(C)CCC1C(C)C (stereo not shown) [Material 57] | K (Log of liquid dish neat product liquid-air partition coefficient greater than or equal to 7) |

Same assay, conditions: code letters K/L of the Comment Code

| Structure (SMILES) | Log of liquid dish neat product liquid-air partition coefficient (Comment Code) |
| --- | --- |
| Cc1cccc(CCO)c1 [Material 928] | K (Log of liquid dish neat product liquid-air partition coefficient greater than or equal to 7) |
| COc1ccc(CC(C)C=O)cc1 (stereo not shown) [Material 586] | K (Log of liquid dish neat product liquid-air partition coefficient greater than or equal to 7) |
| CC(C)(C)c1ccc(CCC=O)cc1 [Material 601] | K (Log of liquid dish neat product liquid-air partition coefficient greater than or equal to 7) |
| CC1CCC2C(C)(C)C3CC12CCC3(C)OC=O (stereo not shown) [Material 566] | K (Log of liquid dish neat product liquid-air partition coefficient greater than or equal to 7) |
| CC(C)Cc1ccc2ccccc2n1 [Material 849] | K (Log of liquid dish neat product liquid-air partition coefficient greater than or equal to 7) |
| C=C(C)C1CC=C(COC(C)=O)CC1 (stereo not shown) [Material 947] | K (Log of liquid dish neat product liquid-air partition coefficient greater than or equal to 7) |
| C=CCCCCCCCCC(=O)OCCCC [Material 599] | K (Log of liquid dish neat product liquid-air partition coefficient greater than or equal to 7) |
| CCCCCCCCCCC=CC=O [Material 930] | K (Log of liquid dish neat product liquid-air partition coefficient greater than or equal to 7) |
| C=CC(C)(CCC=C(C)C)OC(C)OCC (stereo not shown) [Material 916] | K (Log of liquid dish neat product liquid-air partition coefficient greater than or equal to 7) |
| CCCC(O)CCC1C(C)CCCC1(C)C (stereo not shown) [Material 1063] | K (Log of liquid dish neat product liquid-air partition coefficient greater than or equal to 7) |
| CC1=CCOC(c2ccccc2)C1 (stereo not shown) [Material 1016] | K (Log of liquid dish neat product liquid-air partition coefficient greater than or equal to 7) |
| CC(=O)OC(C)CC/C=C(\C)CCC=C(C)C (stereo not shown) [Material 890] | K (Log of liquid dish neat product liquid-air partition coefficient greater than or equal to 7) |
| CC(C)=C1CCC2=CC(=O)CC(C)C2(C)C1 (stereo not shown) [Material 684] | K (Log of liquid dish neat product liquid-air partition coefficient greater than or equal to 7) |
| CCC=CCCC=CCO [Material 865] | K (Log of liquid dish neat product liquid-air partition coefficient greater than or equal to 7) |
| CC/C(=C/CC1CC=C(C)C1(C)C)CO (stereo not shown) [Material 1024] | K (Log of liquid dish neat product liquid-air partition coefficient greater than or equal to 7) |
| CC(C)(O)CCc1ccccc1 [Material 639] | K (Log of liquid dish neat product liquid-air partition coefficient greater than or equal to 7) |
| CC(C)(C=O)CC1=CCC2CC1C2(C)C (stereo not shown) [Material 925] | K (Log of liquid dish neat product liquid-air partition coefficient greater than or equal to 7) |
| C=C(C)C1CCC2(C)CCCC(=C)C2C1 (stereo not shown) [Material 615] | K (Log of liquid dish neat product liquid-air partition coefficient greater than or equal to 7) |
